In patent US6930115B2, “Antitumor effect potentiators” (Mitsubishi Pharma Corporation, priority 2000, dated 2005):

Tests used:
[1] = test system: mouse B16-F10 melanoma cultured cells; assay: Hematogenous pulmonary metastasis after transplantation of mouse B16-F10 melanoma cultured cells into tail vein; format: in vivo; settings: alone
Description: • (1) Preparation of mouse B16-F10 melanoma cultured cells (hereinafter simply B16-F10) B16-F10 cells (a permission to use was obtained from US M.D. Anderson Cancer Center, Dr. I. Fidler and provided for use from Japanese Foundation for cancer research·cancer chemotherapy center, Dr. […] For experiment, B16-F10 cells were suspended in MEM at 5×10^5 cells/mL and 0.2 mL thereof was transferred into the tail vein of 8-week-old male C57BL/6 mice (8 per group). […] Alzet, model 1002, flow rate […], for use for 14 days), and the osmotic pump was intraperitoneally transplanted into the mice one day before the transplantation of B16-F10 cells. • (3) As regards cisplatin, a preparation for injection (product name: Randa injection) was diluted with physiological saline and intraperitoneally administered once the day after transplantation of B16-F10 cells. As regards etoposide, a preparation for injection (product name: […] injection) was diluted with physiological saline and repeatedly administered intraperitoneally once a day for 5 days starting from one day after transplantation of B16-F10 cells. Paclitaxel was purchased from Sigma chemicals Co., suspended in 0.5% metolose solution and repeatedly administered intraperitoneally once every other day (3 times/week for 2 weeks) starting from one day after transplantation of B16-F10 cells. […] In addition, the values of combination index (CI) of the action in concomitant use analyzed by Median Effect Analysis (References and [2]) with regard to the combination group of the compound of the present invention and the anticancer agent are summarized in Table 3 and Table 6.

[2] = test system: Mouse melanoma B16-F10 cells; assay: Measurement of cell growth activity (MTT), in vitro growth of B16-F10 cells; format: cell-based; settings: 72 hr culture, MTT
Description: Mouse melanoma B16-F10 cells (the aforementioned) were cultured in MEM supplemented with 2 mM L-glutamine, 1 mM MEM non-essential amino acids, 1% MEM vitamins, 1 mM pyruvic acid and 5% FCS, and the cells were scraped off from the culture flask every 3-4 days with a cell scraper (No. 3010, manufactured by Coaster), diluted 10-fold and maintained by subculture. In the experiment examining the effect of the test substance on the cell growth, the B16-F10 cells maintained in vitro by subculture were recovered with a cell scraper, suspended in MEM supplemented with 10% FCS at 2×10^5 cells/mL and added to a 96 well microtest plate (Becton Dickinson) at 1×10^4 cells/50 μL/well. Furthermore, 50 μL of a test substance at a 2-fold concentration of the final concentration was added to the well, and cultured in a CO2 incubator (MCO-175, SANYO Electric Co., Ltd.) at 37° C., 5% CO2 95% air for 72 hr.
After culture, 10 mg/mL of MTT [(3-[4,5-Dimethylthiazol-2-yl]-2,5-diphenyl-tetrazolium bromide)] was added at 10 μL/well, which was followed by culture for 3 hr. Thereafter, 100 μL of 10% SDS (sodium dodecylsulfate)—0.01N HCl was added to dissolve the pigment and absorbance at 570 nm was measured with a multilabel counter (1420 ARVO SX, Pharmacia Biotech Corporation). According to the concentration of the test substance, each well was expressed by absorbance, and average value and standard error. Using the well, to which the medium alone was added, as a control, the growth inhibition rate was calculated according to the following formula. [formula] Analysis method: Based on the dose reaction curves of the inventive compound alone treatment group and cisplatin alone treatment group, the combination index (CI) of the action in concomitant use is calculated by median effect analysis (References and [2]). (Results)

SMILES: N.N.[Cl][Pt][Cl] [cisplatin, reference compound]
- T/C±standard error (average number of pulmonary metastatic colonies of administration group/control group ×100) ([1]; Table 1, cisplatin 0.5 mg/kg intraperitoneally once, 14 days after cell transfer): 80.2 ± 13.2%
- T/C±standard error (average number of pulmonary metastatic colonies of administration group/control group ×100) ([1]; Table 1, cisplatin 1 mg/kg intraperitoneally once, 14 days after cell transfer): 66.5 ± 8.3%
- T/C±standard error (average number of pulmonary metastatic colonies of administration group/control group ×100) ([1]; Table 1, cisplatin 2.5 mg/kg intraperitoneally once, 14 days after cell transfer): 57.5 ± 3.0%
- T/C±standard error (average number of pulmonary metastatic colonies of administration group/control group ×100) ([1]; Table 1, cisplatin 5 mg/kg intraperitoneally once, 14 days after cell transfer): 53.3 ± 4.5%
- T/C±standard error (average number of pulmonary metastatic colonies of administration group/control group ×100) ([1]; Table 1, cisplatin 10 mg/kg intraperitoneally once, 14 days after cell transfer): 46.7 ± 4.1%
- T/C±standard error (average number of pulmonary metastatic colonies of administration group/control group ×100) ([1]; Table 2, cisplatin 0.5 mg/kg intraperitoneally once, 14 days after cell transfer): 81.7 ± 13.4%
- T/C±standard error (average number of pulmonary metastatic colonies of administration group/control group ×100) ([1]; Table 2, cisplatin 1 mg/kg intraperitoneally once, 14 days after cell transfer): 67.7 ± 8.4%
- T/C±standard error (average number of pulmonary metastatic colonies of administration group/control group ×100) ([1]; Table 2, cisplatin 2.5 mg/kg intraperitoneally once, 14 days after cell transfer): 58.6 ± 3.0%
- T/C±standard error (average number of pulmonary metastatic colonies of administration group/control group ×100) ([1]; Table 2, cisplatin 5 mg/kg intraperitoneally once, 14 days after cell transfer): 54.3 ± 4.6%
- T/C±standard error (average number of pulmonary metastatic colonies of administration group/control group ×100) ([1]; Table 2, cisplatin 10 mg/kg intraperitoneally once, 14 days after cell transfer): 30.8 ± 4.7%
- average growth suppression rate ± standard error ([2]; cisplatin 10 μM alone): 5.813 ± 1.510%
- average growth suppression rate ± standard error ([2]; cisplatin 30 μM alone): 29.609 ± 4.503%
- average growth suppression rate ± standard error ([2]; cisplatin 100 μM alone): 96.631 ± 0.109%

SMILES: COc1cc([C@@H]2c3cc4c(cc3[C@@H](O[C@@H]3O[C@@H]5CO[C@@H](C)O[C@H]5[C@H](O)[C@H]3O)[C@H]3COC(=O)[C@H]23)OCO4)cc(OC)c1O [etoposide, reference compound]
- T/C±standard error (average number of pulmonary metastatic colonies of administration group/control group ×100) ([1]; Table 4, etoposide 1 mg/kg intraperitoneally once a day for 5 days): 56.0 ± 3.0%
- T/C±standard error (average number of pulmonary metastatic colonies of administration group/control group ×100) ([1]; Table 4, etoposide 2.5 mg/kg intraperitoneally once a day for 5 days): 34.0 ± 7.4%
- T/C±standard error (average number of pulmonary metastatic colonies of administration group/control group ×100) ([1]; Table 4, etoposide 5 mg/kg intraperitoneally once a day for 5 days): 33.4 ± 4.0%
- T/C±standard error (average number of pulmonary metastatic colonies of administration group/control group ×100) ([1]; Table 4, etoposide 10 mg/kg intraperitoneally once a day for 5 days): 22.5 ± 4.2%
- T/C±standard error (average number of pulmonary metastatic colonies of administration group/control group ×100) ([1]; Table 4, etoposide 25 mg/kg intraperitoneally once a day for 5 days): 14.5 ± 2.6%

SMILES: CC(=O)O[C@H]1C(=O)[C@@]2(C)[C@H]([C@H](OC(=O)c3ccccc3)[C@]3(O)C[C@H](OC(=O)[C@H](O)[C@@H](NC(=O)c4ccccc4)c4ccccc4)C(C)=C1C3(C)C)[C@]1(OC(C)=O)CO[C@@H]1C[C@@H]2O [paclitaxel, reference compound]
- T/C±standard error (average number of pulmonary metastatic colonies of administration group/control group ×100) ([1]; Table 5, paclitaxel 1 mg/kg intraperitoneally once every other day (3 times/week for 2 weeks)): 75.9 ± 5.9%
- T/C±standard error (average number of pulmonary metastatic colonies of administration group/control group ×100) ([1]; Table 5, paclitaxel 2.5 mg/kg intraperitoneally once every other day (3 times/week for 2 weeks)): 48.8 ± 8.4%
- T/C±standard error (average number of pulmonary metastatic colonies of administration group/control group ×100) ([1]; Table 5, paclitaxel 5 mg/kg intraperitoneally once every other day (3 times/week for 2 weeks)): 37.3 ± 4.0%
- T/C±standard error (average number of pulmonary metastatic colonies of administration group/control group ×100) ([1]; Table 5, paclitaxel 10 mg/kg intraperitoneally once every other day (3 times/week for 2 weeks)): 30.3 ± 3.6%
- T/C±standard error (average number of pulmonary metastatic colonies of administration group/control group ×100) ([1]; Table 5, paclitaxel 25 mg/kg intraperitoneally once every other day (3 times/week for 2 weeks)): 31.5 ± 7.2%
